Measured values from patent publication US6077822A, “Drug salts” (Dumex-Alpharma A/S, priority 1993, dated 2000).

Tests used:
[1] = dissolution, paddle method USP XXII apparatus II; type: physicochemical; conditions: 900 ml 0.1 N HCl; tablet with 150 mg salt; 5-60 minutes; FIG. 1
Description: The paddle method is used in accordance with USP XXII, p. 1579, (apparatus II), with 900 ml 0.1 N HCl. […] Samples are taken after 5, 10, 20, 30 and 60 minutes and diluted.
The samples are analyzed spectrophotometrically at 345.9 nm in a Shimadzu 160 A photometer.

[2] = increased gastric pH; cited from earlier work
[3] = cited from earlier work

In the case of “Doxycyclin Sucrose-octa-O-sulphonic Acid Salt [Example 2]”, the “release versus time compared with Vibramycin” value [1] is reported as “delayed release characteristics are similar”.

For `C[C@H]1c2cccc(O)c2C(=O)C2=C(O)[C@]3(O)C(=O)C(C(N)=O)=C(O)[C@@H](N(C)C)[C@@H]3[C@@H](O)[C@@H]21.O` [doxycyclin monohydrate], the “effect of increased pH of the stomach on bioavailability / dissociation and absorption” value [2] is given as “decreases the bioavailability”.

For `CCO.C[C@H]1c2cccc(O)c2C(=O)C2=C(O)[C@]3(O)C(=O)C(C(N)=O)=C(O)[C@@H](N(C)C)[C@@H]3[C@@H](O)[C@@H]21.C[C@H]1c2cccc(O)c2C(=O)C2=C(O)[C@]3(O)C(=O)C(C(N)=O)=C(O)[C@@H](N(C)C)[C@@H]3[C@@H](O)[C@@H]21.Cl.Cl.O` [doxycyclin hyclate, doxycyclin hydrochloride (hyclate)], the “patients spontaneously reporting nausea and vomiting” value ([3]; 24/373 patients) is listed as 6.4%, the “patients reporting nausea and vomiting after questioning” value ([3]; 35/113 patients) is listed as 31% and the “frequency of nausea and vomiting relative to other antibiotics” value ([3]; in vivo) is listed as 3 fold. For the same compound, the “effect of increased pH of the stomach on bioavailability / dissociation and absorption” value [2] was “independent of pH”.
